This passage reports residual activity results from the kinase profiling compilation of Christmann-Franck et al. (2016).

Each structure is given as a SMILES string. Several values for one entry are separate records, joined by “and”; a condition that tells them apart may be missing. Identical values can stand only once.

FGFR3 (human), sequence (P22607 whole entry, looked up): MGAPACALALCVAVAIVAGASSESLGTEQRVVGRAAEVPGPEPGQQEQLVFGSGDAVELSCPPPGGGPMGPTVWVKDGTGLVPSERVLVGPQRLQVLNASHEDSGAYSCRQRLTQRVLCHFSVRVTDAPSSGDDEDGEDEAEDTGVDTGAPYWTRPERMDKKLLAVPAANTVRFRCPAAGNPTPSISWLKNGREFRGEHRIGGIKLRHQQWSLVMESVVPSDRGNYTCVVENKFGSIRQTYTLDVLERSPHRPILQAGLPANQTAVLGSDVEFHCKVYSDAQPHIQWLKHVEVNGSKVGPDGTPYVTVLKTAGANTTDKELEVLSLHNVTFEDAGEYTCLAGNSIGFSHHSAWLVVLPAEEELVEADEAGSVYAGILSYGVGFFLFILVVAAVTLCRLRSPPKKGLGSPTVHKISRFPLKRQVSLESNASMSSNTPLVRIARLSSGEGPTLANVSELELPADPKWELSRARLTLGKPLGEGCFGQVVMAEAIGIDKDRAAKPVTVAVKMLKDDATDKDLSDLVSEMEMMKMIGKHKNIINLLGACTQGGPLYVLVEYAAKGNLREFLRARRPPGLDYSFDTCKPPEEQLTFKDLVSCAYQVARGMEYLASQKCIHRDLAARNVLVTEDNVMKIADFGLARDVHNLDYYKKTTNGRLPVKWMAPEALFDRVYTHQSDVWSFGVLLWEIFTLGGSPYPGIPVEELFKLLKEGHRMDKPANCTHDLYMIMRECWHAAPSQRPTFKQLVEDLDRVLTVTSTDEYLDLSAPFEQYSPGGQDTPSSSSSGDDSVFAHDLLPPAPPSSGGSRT
CLK4 (human), sequence (Q9HAZ1 whole entry, looked up): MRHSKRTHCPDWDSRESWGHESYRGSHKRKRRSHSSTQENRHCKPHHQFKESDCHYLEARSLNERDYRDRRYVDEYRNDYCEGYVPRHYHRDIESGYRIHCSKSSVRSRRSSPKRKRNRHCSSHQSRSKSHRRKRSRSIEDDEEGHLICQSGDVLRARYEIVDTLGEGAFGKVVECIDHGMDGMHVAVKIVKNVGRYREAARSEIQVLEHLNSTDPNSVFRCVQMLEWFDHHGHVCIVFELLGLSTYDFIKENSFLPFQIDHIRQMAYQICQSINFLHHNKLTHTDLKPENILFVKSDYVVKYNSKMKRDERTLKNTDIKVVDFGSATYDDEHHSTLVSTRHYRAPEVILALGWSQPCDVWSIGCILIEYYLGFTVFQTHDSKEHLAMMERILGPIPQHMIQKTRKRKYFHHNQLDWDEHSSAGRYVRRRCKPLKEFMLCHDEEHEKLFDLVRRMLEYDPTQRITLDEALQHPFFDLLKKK
CLK2 (human), sequence (P49760 whole entry, looked up): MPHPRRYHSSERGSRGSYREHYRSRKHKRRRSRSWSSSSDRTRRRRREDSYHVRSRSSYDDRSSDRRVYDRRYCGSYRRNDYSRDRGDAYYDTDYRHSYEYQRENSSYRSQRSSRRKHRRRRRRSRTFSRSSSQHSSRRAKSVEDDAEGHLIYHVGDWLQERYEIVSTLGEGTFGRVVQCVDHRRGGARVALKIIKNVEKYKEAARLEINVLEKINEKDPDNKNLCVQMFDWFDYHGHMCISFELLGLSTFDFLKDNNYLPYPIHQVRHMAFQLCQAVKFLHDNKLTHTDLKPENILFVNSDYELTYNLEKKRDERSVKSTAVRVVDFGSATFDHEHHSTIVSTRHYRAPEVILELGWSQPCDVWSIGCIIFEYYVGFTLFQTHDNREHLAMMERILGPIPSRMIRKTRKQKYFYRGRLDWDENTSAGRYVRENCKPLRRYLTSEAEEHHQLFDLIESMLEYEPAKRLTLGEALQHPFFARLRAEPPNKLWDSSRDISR
FGFR2 (human), sequence (P21802 whole entry, looked up): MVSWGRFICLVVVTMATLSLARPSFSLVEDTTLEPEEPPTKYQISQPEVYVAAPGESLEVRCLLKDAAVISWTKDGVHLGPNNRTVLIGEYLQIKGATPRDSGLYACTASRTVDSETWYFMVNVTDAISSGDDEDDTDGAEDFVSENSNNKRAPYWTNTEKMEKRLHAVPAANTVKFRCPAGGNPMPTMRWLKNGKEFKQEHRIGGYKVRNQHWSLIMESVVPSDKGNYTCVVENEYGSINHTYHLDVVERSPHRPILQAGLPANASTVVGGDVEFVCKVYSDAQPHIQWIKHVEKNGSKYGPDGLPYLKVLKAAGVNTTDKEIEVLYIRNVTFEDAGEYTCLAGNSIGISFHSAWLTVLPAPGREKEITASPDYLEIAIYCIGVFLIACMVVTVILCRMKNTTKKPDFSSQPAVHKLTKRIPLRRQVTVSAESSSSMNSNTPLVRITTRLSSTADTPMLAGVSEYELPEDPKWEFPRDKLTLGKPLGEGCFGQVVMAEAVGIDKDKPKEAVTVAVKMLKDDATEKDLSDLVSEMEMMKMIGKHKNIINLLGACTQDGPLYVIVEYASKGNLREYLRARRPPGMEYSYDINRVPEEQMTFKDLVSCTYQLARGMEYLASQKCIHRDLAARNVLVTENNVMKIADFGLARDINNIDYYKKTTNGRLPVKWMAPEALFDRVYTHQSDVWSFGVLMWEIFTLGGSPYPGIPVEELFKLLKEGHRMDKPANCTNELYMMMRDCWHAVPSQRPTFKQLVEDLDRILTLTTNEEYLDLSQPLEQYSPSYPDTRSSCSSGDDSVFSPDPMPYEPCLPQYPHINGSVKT
RPS6KA3 KD1 KD2 (human), sequence (P51812 whole entry, looked up): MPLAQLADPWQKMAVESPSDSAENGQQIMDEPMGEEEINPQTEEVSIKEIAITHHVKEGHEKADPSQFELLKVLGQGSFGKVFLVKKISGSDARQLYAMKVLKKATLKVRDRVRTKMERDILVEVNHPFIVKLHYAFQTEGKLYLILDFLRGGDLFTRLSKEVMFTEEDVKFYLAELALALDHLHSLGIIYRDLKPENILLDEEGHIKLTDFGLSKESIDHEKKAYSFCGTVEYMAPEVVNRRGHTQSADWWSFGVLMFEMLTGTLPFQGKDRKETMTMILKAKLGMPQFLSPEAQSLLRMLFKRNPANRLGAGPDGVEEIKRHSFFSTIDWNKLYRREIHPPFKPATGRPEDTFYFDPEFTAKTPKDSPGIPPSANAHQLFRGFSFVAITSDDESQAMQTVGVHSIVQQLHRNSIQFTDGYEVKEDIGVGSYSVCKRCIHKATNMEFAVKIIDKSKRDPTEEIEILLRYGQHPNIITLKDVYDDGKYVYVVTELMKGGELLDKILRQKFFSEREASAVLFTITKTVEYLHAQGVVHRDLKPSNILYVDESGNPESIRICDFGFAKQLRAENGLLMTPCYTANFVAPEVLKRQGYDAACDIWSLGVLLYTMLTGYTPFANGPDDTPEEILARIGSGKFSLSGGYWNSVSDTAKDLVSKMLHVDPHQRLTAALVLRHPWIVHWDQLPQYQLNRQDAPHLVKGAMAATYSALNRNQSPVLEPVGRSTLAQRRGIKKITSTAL
PRKG1 (human), sequence (Q13976 whole entry, looked up): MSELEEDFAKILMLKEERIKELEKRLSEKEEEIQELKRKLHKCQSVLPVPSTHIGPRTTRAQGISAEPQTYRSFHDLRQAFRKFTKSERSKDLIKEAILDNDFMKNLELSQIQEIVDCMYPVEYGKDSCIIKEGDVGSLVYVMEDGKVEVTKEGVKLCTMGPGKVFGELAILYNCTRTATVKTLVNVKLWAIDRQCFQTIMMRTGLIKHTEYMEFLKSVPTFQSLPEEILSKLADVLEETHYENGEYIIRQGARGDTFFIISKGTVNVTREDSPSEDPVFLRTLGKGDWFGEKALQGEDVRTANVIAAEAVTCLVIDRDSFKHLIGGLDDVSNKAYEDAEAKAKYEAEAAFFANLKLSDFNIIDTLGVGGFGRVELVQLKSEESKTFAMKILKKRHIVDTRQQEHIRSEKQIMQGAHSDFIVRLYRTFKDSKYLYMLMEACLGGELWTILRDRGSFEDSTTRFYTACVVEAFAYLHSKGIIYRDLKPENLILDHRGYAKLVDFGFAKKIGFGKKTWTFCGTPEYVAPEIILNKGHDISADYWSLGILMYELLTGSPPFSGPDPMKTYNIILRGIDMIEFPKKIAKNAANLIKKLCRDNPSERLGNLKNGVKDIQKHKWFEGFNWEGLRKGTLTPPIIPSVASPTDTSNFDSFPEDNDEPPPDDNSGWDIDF

The first test has as its target PRKCB2 (human) (UniProt P05771). Kind of test: radiometric filter-binding kinase assay, Kinase HotSpot. Particulars: compound 0.5 µM; ATP 10 µM.
For `Nc1nnc2[nH]c3ccccc3nc1-2`, the residual activity came out at 88.5%.

In the case of `CCn1cnc2c(Nc3cccc(Cl)c3)nc(N[C@@H]3CCCC[C@@H]3N)nc21`, the residual activity was found to be 79.4%.

Another test has as its target FGFR2 (human) (UniProt P21802). The description is as above. Particulars: compound 0.5 µM; ATP 10 µM.
`CCN(CC)CCCCN1c2ccccc2Oc2ccc(Cl)cc21`: the residual activity stood at 95.7%.

`CC(C)[C@H](CO)Nc1nc(Nc2cc(N)cc(Cl)c2)c2ncn(C(C)C)c2n1`: the residual activity was determined as 97.3%.

Take `Nc1nnc2[nH]c3ccccc3nc1-2`: the residual activity was determined as 98.1%.

A further test has as its target CSNK1G2 (human) (UniProt P78368). The test is described as above. As to conditions: compound 0.5 µM; ATP 10 µM.
For the compound `CCN(CC)CCCCN1c2ccccc2Oc2ccc(Cl)cc21`, the residual activity was determined as 103%.

Take `CC(C)[C@H](CO)Nc1nc(Nc2cc(N)cc(Cl)c2)c2ncn(C(C)C)c2n1`: the residual activity was 35.2%.

`Nc1nnc2[nH]c3ccccc3nc1-2`: the residual activity was 93.8%.

Regarding `CCn1cnc2c(Nc3cccc(Cl)c3)nc(N[C@@H]3CCCC[C@@H]3N)nc21`, the residual activity was found to be 69.5%.

For the next test, the target named is RIPK2 (human) (UniProt O43353). The test is described as above. Particulars: compound 0.5 µM; ATP 10 µM.
As for `CCN(CC)CCCCN1c2ccccc2Oc2ccc(Cl)cc21`, the residual activity turned out to be 89.7%.

In the case of `CC(C)[C@H](CO)Nc1nc(Nc2cc(N)cc(Cl)c2)c2ncn(C(C)C)c2n1`, the residual activity came to 87.7%.

Consider `Nc1nnc2[nH]c3ccccc3nc1-2`, for which the residual activity was determined as 81.1%.

For the compound `CCn1cnc2c(Nc3cccc(Cl)c3)nc(N[C@@H]3CCCC[C@@H]3N)nc21`, the residual activity was 70%.

The target in the next test is NEK9 (human) (UniProt Q8TD19). Described as above. As to conditions: compound 0.5 µM; ATP 10 µM.
For `CCN(CC)CCCCN1c2ccccc2Oc2ccc(Cl)cc21`, the residual activity is 98.8%.

Regarding `CC(C)[C@H](CO)Nc1nc(Nc2cc(N)cc(Cl)c2)c2ncn(C(C)C)c2n1`, the residual activity came to 69.4%.

Take `Nc1nnc2[nH]c3ccccc3nc1-2`: the residual activity was 98.5%.

`CCn1cnc2c(Nc3cccc(Cl)c3)nc(N[C@@H]3CCCC[C@@H]3N)nc21`: the residual activity amounted to 95.4%.

The next test concerns the target RPS6KA3 KD1 KD2 (human) (UniProt P51812). Described as above. Particulars: compound 0.5 µM; ATP 10 µM.
In the case of `CCN(CC)CCCCN1c2ccccc2Oc2ccc(Cl)cc21`, the residual activity worked out at 98.6%.

In the case of `CC(C)[C@H](CO)Nc1nc(Nc2cc(N)cc(Cl)c2)c2ncn(C(C)C)c2n1`, the residual activity came to 54.1%.

Take `Nc1nnc2[nH]c3ccccc3nc1-2`: the residual activity worked out at 88%.

Take `CCn1cnc2c(Nc3cccc(Cl)c3)nc(N[C@@H]3CCCC[C@@H]3N)nc21`: the residual activity is 64.1%.

Another test concerns the target CLK4 (human) (UniProt Q9HAZ1). The description is as above. Particulars: compound 0.5 µM; ATP 10 µM.
For the compound `CCN(CC)CCCCN1c2ccccc2Oc2ccc(Cl)cc21`, the residual activity stood at 97%.

For the compound `CC(C)[C@H](CO)Nc1nc(Nc2cc(N)cc(Cl)c2)c2ncn(C(C)C)c2n1`, the residual activity was found to be 16.5%.

Turning to `Nc1nnc2[nH]c3ccccc3nc1-2`, the residual activity is 86.9%.

Regarding `CCn1cnc2c(Nc3cccc(Cl)c3)nc(N[C@@H]3CCCC[C@@H]3N)nc21`, the residual activity was found to be 49.9%.

The next test has as its target CLK2 (human) (UniProt P49760). The test is described as above. Particulars: compound 0.5 µM; ATP 10 µM.
As for `CCN(CC)CCCCN1c2ccccc2Oc2ccc(Cl)cc21`, the residual activity is 105%.

Regarding `CC(C)[C@H](CO)Nc1nc(Nc2cc(N)cc(Cl)c2)c2ncn(C(C)C)c2n1`, the residual activity was determined as 17.7%.

Consider `Nc1nnc2[nH]c3ccccc3nc1-2`, for which the residual activity is 96.1%.

Turning to `CCn1cnc2c(Nc3cccc(Cl)c3)nc(N[C@@H]3CCCC[C@@H]3N)nc21`, the residual activity stood at 26.6%.

The next test concerns the target PRKG1 (human) (UniProt Q13976). Described as above. Particulars: compound 0.5 µM; ATP 10 µM.
Take `CCN(CC)CCCCN1c2ccccc2Oc2ccc(Cl)cc21`: the residual activity was 91.3% and 98.8%.

`CC(C)[C@H](CO)Nc1nc(Nc2cc(N)cc(Cl)c2)c2ncn(C(C)C)c2n1`: the residual activity was 102% and 104%.

For the compound `Nc1nnc2[nH]c3ccccc3nc1-2`, the residual activity is 93% and 97.7%.

In the case of `CCn1cnc2c(Nc3cccc(Cl)c3)nc(N[C@@H]3CCCC[C@@H]3N)nc21`, the residual activity is 91.4% and 91.8%.

For a further test, the target named is MAP3K14 (human) (UniProt Q99558). The test is described as above. As to conditions: compound 0.5 µM; ATP 10 µM.
Consider `CCN(CC)CCCCN1c2ccccc2Oc2ccc(Cl)cc21`, for which the residual activity stood at 95.6%.

On to `CC(C)[C@H](CO)Nc1nc(Nc2cc(N)cc(Cl)c2)c2ncn(C(C)C)c2n1`, for which the residual activity turned out to be 100%.

Take `Nc1nnc2[nH]c3ccccc3nc1-2`: the residual activity was 99.2%.

Regarding `CCn1cnc2c(Nc3cccc(Cl)c3)nc(N[C@@H]3CCCC[C@@H]3N)nc21`, the residual activity came to 85.1%.

Another test concerns the target FGFR3 (human) (UniProt P22607). The description is as above. Particulars: compound 0.5 µM; ATP 10 µM.
As to `CCN(CC)CCCCN1c2ccccc2Oc2ccc(Cl)cc21`, the residual activity is 91.8%.

`CC(C)[C@H](CO)Nc1nc(Nc2cc(N)cc(Cl)c2)c2ncn(C(C)C)c2n1`: the residual activity is 79.4%.

For the compound `Nc1nnc2[nH]c3ccccc3nc1-2`, the residual activity came out at 96.5%.

Take `CCn1cnc2c(Nc3cccc(Cl)c3)nc(N[C@@H]3CCCC[C@@H]3N)nc21`: the residual activity was 90.4%.

A further test deals with FER (human) (UniProt P16591). Described as above. As to conditions: compound 0.5 µM; ATP 10 µM.
For `CCN(CC)CCCCN1c2ccccc2Oc2ccc(Cl)cc21`, the residual activity was determined as 102%.

Take `CC(C)[C@H](CO)Nc1nc(Nc2cc(N)cc(Cl)c2)c2ncn(C(C)C)c2n1`: the residual activity is 54.9%.

Consider `Nc1nnc2[nH]c3ccccc3nc1-2`, for which the residual activity was 94.4%.

Take `CCn1cnc2c(Nc3cccc(Cl)c3)nc(N[C@@H]3CCCC[C@@H]3N)nc21`: the residual activity was 86.8%.

The target of another test is PDGFRA (human) (UniProt P16234). The test is described as above. As to conditions: compound 0.5 µM; ATP 10 µM.
With `CCN(CC)CCCCN1c2ccccc2Oc2ccc(Cl)cc21`, the residual activity turned out to be 102%.

With `CC(C)[C@H](CO)Nc1nc(Nc2cc(N)cc(Cl)c2)c2ncn(C(C)C)c2n1`, the residual activity was 89.4%.

In the case of `Nc1nnc2[nH]c3ccccc3nc1-2`, the residual activity was determined as 103%.

In the case of `CCn1cnc2c(Nc3cccc(Cl)c3)nc(N[C@@H]3CCCC[C@@H]3N)nc21`, the residual activity amounted to 100%.

Another test deals with ACVR1B (human) (UniProt P36896). The description is as above. As to conditions: compound 0.5 µM; ATP 10 µM.
ACVR1B (human), sequence (P36896 whole entry, looked up): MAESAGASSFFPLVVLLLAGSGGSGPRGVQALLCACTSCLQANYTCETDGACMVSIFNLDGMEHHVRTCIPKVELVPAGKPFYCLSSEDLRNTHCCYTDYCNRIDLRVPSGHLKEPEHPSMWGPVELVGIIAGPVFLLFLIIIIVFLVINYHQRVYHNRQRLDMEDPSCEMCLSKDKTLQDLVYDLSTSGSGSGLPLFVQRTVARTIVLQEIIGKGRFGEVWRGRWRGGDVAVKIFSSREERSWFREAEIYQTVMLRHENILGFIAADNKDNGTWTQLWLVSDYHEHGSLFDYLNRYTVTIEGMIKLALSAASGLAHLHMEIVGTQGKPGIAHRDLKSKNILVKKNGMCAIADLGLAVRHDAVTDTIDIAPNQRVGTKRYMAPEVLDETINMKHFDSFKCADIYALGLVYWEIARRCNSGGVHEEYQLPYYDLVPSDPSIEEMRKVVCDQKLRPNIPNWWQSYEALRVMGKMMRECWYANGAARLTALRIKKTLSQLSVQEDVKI
Take `CCN(CC)CCCCN1c2ccccc2Oc2ccc(Cl)cc21`: the residual activity worked out at 105%.

For `CC(C)[C@H](CO)Nc1nc(Nc2cc(N)cc(Cl)c2)c2ncn(C(C)C)c2n1`, the residual activity was determined as 107%.

On to `Nc1nnc2[nH]c3ccccc3nc1-2`, for which the residual activity worked out at 99.9%.

In the case of `CCn1cnc2c(Nc3cccc(Cl)c3)nc(N[C@@H]3CCCC[C@@H]3N)nc21`, the residual activity was 110%.

The target in a further test is VRK1 (human) (UniProt Q99986). The description is as above. As to conditions: compound 0.5 µM; ATP 10 µM.
VRK1 (human), sequence (Q99986 whole entry, looked up): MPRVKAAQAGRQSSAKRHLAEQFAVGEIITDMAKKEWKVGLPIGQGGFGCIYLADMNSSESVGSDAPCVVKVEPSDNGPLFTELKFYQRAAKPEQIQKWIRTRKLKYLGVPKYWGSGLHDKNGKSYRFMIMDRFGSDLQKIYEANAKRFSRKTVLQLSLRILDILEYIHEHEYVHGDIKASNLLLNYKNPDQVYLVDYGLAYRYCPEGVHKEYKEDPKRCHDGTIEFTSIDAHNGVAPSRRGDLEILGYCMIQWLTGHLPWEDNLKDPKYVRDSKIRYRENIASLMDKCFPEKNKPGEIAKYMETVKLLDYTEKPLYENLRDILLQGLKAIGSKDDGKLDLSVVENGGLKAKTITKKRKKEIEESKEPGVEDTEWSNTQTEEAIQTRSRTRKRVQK
`CCN(CC)CCCCN1c2ccccc2Oc2ccc(Cl)cc21`: the residual activity amounted to 101%.

For the compound `CC(C)[C@H](CO)Nc1nc(Nc2cc(N)cc(Cl)c2)c2ncn(C(C)C)c2n1`, the residual activity was 85.8%.

Take `Nc1nnc2[nH]c3ccccc3nc1-2`: the residual activity is 103%.

For `CCn1cnc2c(Nc3cccc(Cl)c3)nc(N[C@@H]3CCCC[C@@H]3N)nc21`, the residual activity is 103%.

Another test has as its target BRAF (human) (UniProt P15056). The test is described as above. Particulars: compound 0.5 µM; ATP 10 µM.
In the case of `CCN(CC)CCCCN1c2ccccc2Oc2ccc(Cl)cc21`, the residual activity is 98.8%.

`CC(C)[C@H](CO)Nc1nc(Nc2cc(N)cc(Cl)c2)c2ncn(C(C)C)c2n1`: the residual activity was 97.5%.

As for `Nc1nnc2[nH]c3ccccc3nc1-2`, the residual activity came to 102%.

For the compound `CCn1cnc2c(Nc3cccc(Cl)c3)nc(N[C@@H]3CCCC[C@@H]3N)nc21`, the residual activity is 93%.

The target of the next test is GSG2 (human) (UniProt Q8TF76). Described as above. Particulars: compound 0.5 µM; ATP 10 µM.
As for `CCN(CC)CCCCN1c2ccccc2Oc2ccc(Cl)cc21`, the residual activity worked out at 104%.

As to `CC(C)[C@H](CO)Nc1nc(Nc2cc(N)cc(Cl)c2)c2ncn(C(C)C)c2n1`, the residual activity was 99.9%.

Consider `Nc1nnc2[nH]c3ccccc3nc1-2`, for which the residual activity came to 82.1%.

For the compound `CCn1cnc2c(Nc3cccc(Cl)c3)nc(N[C@@H]3CCCC[C@@H]3N)nc21`, the residual activity came out at 90.4%.

The target in another test is DAPK2 (human) (UniProt Q9UIK4). The description is as above. As to conditions: compound 0.5 µM; ATP 10 µM.
As for `CCN(CC)CCCCN1c2ccccc2Oc2ccc(Cl)cc21`, the residual activity was 99%.

As for `CC(C)[C@H](CO)Nc1nc(Nc2cc(N)cc(Cl)c2)c2ncn(C(C)C)c2n1`, the residual activity was 101%.

As to `Nc1nnc2[nH]c3ccccc3nc1-2`, the residual activity stood at 91%.

On to `CCn1cnc2c(Nc3cccc(Cl)c3)nc(N[C@@H]3CCCC[C@@H]3N)nc21`, for which the residual activity was determined as 99%.

One may read the residual activity as the signal under treatment as a percentage of the control signal.
